In US4906659A, “Antibiotic tan-749, its derivatives, production and use thereof” (Takeda Chemical Industries, Ltd., priority 1985, dated 1990):
Converted amounts (≈) assume the structure as drawn. Where a name gives a salt, the structure may show the parent alone.

How the values were obtained:
[1] = system: S. aureus 308A-1; experiment: Antibacterial activity in mice, ED50 (Table 3); assay type: in vivo; conditions: Staphylococcus aureus, 308A1, sc, S.C.
From the text: The antibacterial activities against gram-positive bacteria (S. aureus […]-1) of some compounds of the invention are as shown in Table 3. | **mice, S.C.,

[2] = system: S. aureus 308A-1; experiment: Antibacterial activity against gram-positive bacteria, MIC (Table 3); assay type: cell-based; conditions: Staphylococcus aureus, 308A1; Tripticase Soy Agar; inoculum size 10^8 cfu/ml
From the text: The antibacterial activities against gram-positive bacteria (S. aureus 308A-1) of some compounds of the invention are as shown in Table 3.
*Medium: Tripticase Soy Agar Inoculum size: 10^8 cfu/ml

[3] = system: Staphylococcus aureus 308A-1; experiment: Therapeutic effect on infectious disease in mice (Table G); assay type: in vivo; conditions: bacteria infected intraperitoneally
[4] = system: Escherichia coli 0-111; experiment: as above; assay type: in vivo; conditions: Escherichia coli, 0111, sc, dihydrochloride, bacteria infected intraperitoneally, subcutaneous administration
[5] = system: Streptococcus pyogenes E-14; experiment: Antibacterial spectrum, minimal inhibitory concentration, agar dilution (Table E); assay type: cell-based; conditions: E14, dihydrochloride, medium B--TSA (10% horse serum/TSA), inoculum a loopful of 10^8 CFU/ml
From the text: (§1) Tables D and E show the antibacterial spectra of TAN-749A, B, C and D (dihydrochlorides) against various microorganisms.
(§2) (Note 1) Determined by the agar dilution method. Inoculum size was a
(§3) loopful of 10^8 CFU/ml.
(§4) (Note 2) TSA (Tripticase Soy Agar; Baltimore Biological Laboratories,
(§5) USA), B--TSA; 10% horse serum/TSA

[6] = system: Escherichia coli T7; experiment: as above; assay type: cell-based; conditions: dihydrochloride, medium TSA, inoculum a loopful of 10^8 CFU/ml
From the text: as §1, §2, §3, §4, §5

[7] = system: Pseudomonas aeruginosa P9; experiment: as above; assay type: cell-based; conditions: dihydrochloride, medium B--TSA (10% horse serum/TSA), inoculum a loopful of 10^8 CFU/ml
From the text: as §1, §2, §3, §4, §5

[8] = system: Staphylococcus aureus FDA209P; experiment: as above; assay type: cell-based; conditions: dihydrochloride, medium B--TSA (10% horse serum/TSA), inoculum a loopful of 10^8 CFU/ml
From the text: as §1, §2, §3, §4, §5

[9] = system: Staphylococcus aureus 308A-1; experiment: as above; assay type: cell-based; conditions: 308A1, dihydrochloride, medium TSA, inoculum a loopful of 10^8 CFU/ml
From the text: as §1, §2, §3, §4, §5

[10] = system: Acinetobacter calcoaceticus IFO 13006; experiment: Antibacterial spectrum, minimal inhibitory concentration (Table D); assay type: cell-based; conditions: IFO13006, dihydrochloride, Bacto-Antibiotic Medium 3 agar, inoculum a loopful of approx. 10^6 CFU/ml
Method: as §1
(§6) Bacto-Antibiotic Medium 3
(§7) Distilled water 1,000 ml
(§8) Inoculum size a loopful of approx.

[11] = system: Klebsiella pneumoniae IFO 3317; experiment: as above; assay type: cell-based; conditions: IFO3317, dihydrochloride, Bacto-Antibiotic Medium 3 agar, inoculum a loopful of approx. 10^6 CFU/ml
Method: as §1, §6, §7, §8

[12] = system: Pseudomonas aeruginosa IFO 3080; experiment: as above; assay type: cell-based; conditions: IFO3080, dihydrochloride, Bacto-Antibiotic Medium 3 agar, inoculum a loopful of approx. 10^6 CFU/ml
Method: as §1, §6, §7, §8

[13] = system: Alcaligenes faecalis IFO 13111; experiment: as above; assay type: cell-based; conditions: IFO13111, dihydrochloride, Bacto-Antibiotic Medium 3 agar, inoculum a loopful of approx. 10^6 CFU/ml
Method: as §1, §6, §7, §8

[14] = system: Proteus morganii IFO 3168; experiment: as above; assay type: cell-based; conditions: Morganella morganii, IFO3168; dihydrochloride; Bacto-Antibiotic Medium 3 agar; inoculum a loopful of approx. 10^6 CFU/ml
Method: as §1, §6, §7, §8

[15] = system: Proteus vulgaris IFO 3988; experiment: as above; assay type: cell-based; conditions: IFO3988, dihydrochloride, Bacto-Antibiotic Medium 3 agar, inoculum a loopful of approx. 10^6 CFU/ml
Method: as §1, §6, §7, §8

[16] = system: Citrobacter freundii IFO 12681; experiment: as above; assay type: cell-based; conditions: IFO12681, dihydrochloride, Bacto-Antibiotic Medium 3 agar, inoculum a loopful of approx. 10^6 CFU/ml
Method: as §1, §6, §7, §8

[17] = system: Escherichia coli NIHJ JC2; experiment: as above; assay type: cell-based; conditions: NIHJJC2, dihydrochloride, Bacto-Antibiotic Medium 3 agar, inoculum a loopful of approx. 10^6 CFU/ml
Method: as §1, §6, §7, §8

[18] = system: Staphylococcus aureus FDA 209P; experiment: as above; assay type: cell-based; conditions: FDA209P, dihydrochloride, Bacto-Antibiotic Medium 3 agar, inoculum a loopful of approx. 10^6 CFU/ml
Method: as §1, §6, §7, §8

[19] = system: Pseudomonas aeruginosa P-9; experiment: Therapeutic effect on infectious disease in mice (Table G); assay type: in vivo; conditions: P9, sc, dihydrochloride, bacteria infected intraperitoneally, subcutaneous administration
[20] = Preliminary acute toxicities in mice (Table H); conditions: mouse, in vivo, dihydrochloride
[21] = system: Escherichia coli T7; experiment: Therapeutic effect on infectious disease in mice (Table G); assay type: in vivo; conditions: T7, sc, dihydrochloride, bacteria infected intraperitoneally, subcutaneous administration
[22] = Solubility; assay type: physicochemical
[23] = pKa' value; assay type: physicochemical; conditions: dihydrochloride
[24] = 308A1, sc, dihydrochloride, subcutaneous administration

CC=CC=C(C)C(=O)NCC(O)CC(N)CC(=O)NCCC(=N)N (stereo not shown) [44b]
ED50 [1]: 21.5 mg/kg
MIC [2]: 100 µg/mL (≈ 295 µM)

C/C=C\C=C(/C)C(=O)NC[C@H](O)C[C@@H](N)CC(=O)NCCC(=N)N [101b]
ED50 [1]: 7.02 mg/kg
MIC [2]: > 100 µg/mL

C=C/C=C(\C)C(=O)NC[C@H](O)C[C@@H](N)CC(=O)NCCC(=N)N [112b]
ED50 [1]: 6.25 mg/kg
MIC [2]: > 100 µg/mL

N=C(N)CCNC(=O)C[C@H](N)C[C@@H](O)CNC(=O)/C=C/C=C\Cl [120b]
ED50 [1]: 8.61 mg/kg
MIC [2]: > 100 µg/mL

C/C=C\C=C\C(=O)NC[C@H](O)C[C@@H](N)CC(=O)NCC(C)C(=N)N (stereo partly shown) [124b]
ED50 [1]: 7.2 mg/kg
MIC [2]: > 100 µg/mL

C/C=C\C=C\C(=O)NC[C@H](O)C[C@@H](N)CC(=O)NCCC(=N)NC [125b]
ED50 [1]: 19.2 mg/kg
MIC [2]: > 100 µg/mL

C/C=C\C=C\C(=O)NC[C@H](O)C[C@H](CC(=O)NCCC(=N)N)NC(=O)CN [133b]
ED50 [1]: 8.41 mg/kg
MIC [2]: > 100 µg/mL

C/C=C\C=C\C(=O)NC[C@H](O)C[C@H](CC(=O)NCCC(=N)N)NC(=O)C(N)CO (stereo partly shown) [134b]
ED50 [1]: 7.79 mg/kg
MIC [2]: > 100 µg/mL

C/C=C\C=C\C(=O)NC[C@H](O)C[C@H](CC(=O)NCCC(=N)N)NC(=O)[C@H](C)N [136b]
ED50 [1]: 8.16 mg/kg
MIC [2]: > 100 µg/mL

C/C=C/C=C/C(=O)NCC(O)CC(N)CC(=O)NCCC(=N)N (stereo not shown) [III]
ED50 [3, 24]: 12.5 mg/kg
ED50 [4]: 50 mg/kg
MIC [5]: 100 µg/mL (≈ 307 µM)
MIC [6]: > 100 µg/mL
MIC [7]: 100 µg/mL (≈ 307 µM)
MIC [8]: > 100 µg/mL
MIC [9]: > 100 µg/mL
MIC [10]: > 100 µg/mL
MIC [11]: > 100 µg/mL
MIC [12]: 50 µg/mL (≈ 154 µM)
MIC [13]: 12.5 µg/mL (≈ 38.4 µM)
MIC [14]: > 100 µg/mL
MIC [15]: 100 µg/mL (≈ 307 µM)
MIC [16]: > 100 µg/mL
MIC [17]: > 100 µg/mL
MIC [18]: > 100 µg/mL

C/C=C\C=C\C(=O)NC(C)C(O)CC(N)CC(=O)NCCC(=N)N (stereo not shown) [II]
ED50 ([3]; 308A1, dihydrochloride, oral administration): 16.2 mg/kg
ED50 [3, 24]: 0.351 mg/kg
ED50 [19]: 61.4 mg/kg
ED50 [4]: 27.3 mg/kg
MIC [5]: 6.25 µg/mL (≈ 18.4 µM)
MIC [6]: 12.5 µg/mL (≈ 36.8 µM)
MIC [7]: 50 µg/mL (≈ 147 µM)
MIC [8]: 3.13 µg/mL (≈ 9.22 µM)
MIC [9]: 3.13 µg/mL (≈ 9.22 µM)
MIC [10]: 50 µg/mL (≈ 147 µM)
MIC [11]: 100 µg/mL (≈ 295 µM)
MIC [12]: 50 µg/mL (≈ 147 µM)
MIC [13]: 6.25 µg/mL (≈ 18.4 µM)
MIC [14]: 100 µg/mL (≈ 295 µM)
MIC [15]: 25 µg/mL (≈ 73.7 µM)
MIC [16]: ≥ 100 µg/mL
MIC [17]: > 100 µg/mL
MIC [18]: 12.5 µg/mL (≈ 36.8 µM)
LD50 ([20]; sc, subcutaneous): 400 to 800 mg/kg

C/C=C/C=C/C(=O)NC(C)C(O)CC(N)CC(=O)NCCC(=N)N (stereo not shown) [IV]
ED50 [3, 24]: < 6.25 mg/kg
MIC [5]: 25 µg/mL (≈ 73.7 µM)
MIC [6]: 50 µg/mL (≈ 147 µM)
MIC [7]: 100 µg/mL (≈ 295 µM)
MIC [8]: 25 µg/mL (≈ 73.7 µM)
MIC [9]: 25 µg/mL (≈ 73.7 µM)
MIC [10]: > 100 µg/mL
MIC [11]: > 100 µg/mL
MIC [12]: 100 µg/mL (≈ 295 µM)
MIC [13]: 6.25 µg/mL (≈ 18.4 µM)
MIC [14]: > 100 µg/mL
MIC [15]: 100 µg/mL (≈ 295 µM)
MIC [16]: > 100 µg/mL
MIC [17]: > 100 µg/mL
MIC [18]: 50 µg/mL (≈ 147 µM)

C/C=C\C=C\C(=O)NCC(O)CC(N)CC(=O)NCCC(=N)N (stereo not shown) [I]
ED50 [3, 24]: 1.31 mg/kg
ED50 [21]: 50.8 mg/kg
ED50 [4]: 67.2 mg/kg
MIC [5]: 3.13 µg/mL (≈ 9.62 µM)
MIC [6]: 50 µg/mL (≈ 154 µM)
MIC [7]: 100 µg/mL (≈ 307 µM)
MIC [8]: 12.5 µg/mL (≈ 38.4 µM)
MIC [9]: 12.5 µg/mL (≈ 38.4 µM)
MIC [10]: 25 µg/mL (≈ 76.8 µM)
MIC [11]: > 100 µg/mL
MIC [13]: 3.13 µg/mL (≈ 9.62 µM)
MIC [14]: > 100 µg/mL
MIC [15]: 100 µg/mL (≈ 307 µM)
MIC [16]: ≥ 100 µg/mL
MIC [17]: > 100 µg/mL
MIC [18]: 50 µg/mL (≈ 154 µM)
LD50 ([20]; oral): 2000 to 4000 mg/kg
LD50 ([20]; sc, subcutaneous): ~500 mg/kg

CN(CC(=O)O)NC(=O)C[C@H](N)C[C@@H](O)CN [Negamycin, 2-(3R,5R)-3,6-diamino-5-hydroxyhexanoyl-1-methylhydrazinoacetic acid, reference compound]
MIC [2]: > 100 µg/mL

C/C=C\C=C\C(=O)NCC(O)CC(N)CC(=O)NCCC(=N)N (stereo not shown) [TAN-749A dihydrochloride]
Solubility: Soluble ([22]; dihydrochloride): Water, Dimethyl sulfoxide, Methanol
Solubility: Sparingly soluble ([22]; dihydrochloride): Acetone, Ethyl acetate, Diethyl ether
pKa [23]: 8

C/C=C\C=C\C(=O)NC(C)C(O)CC(N)CC(=O)NCCC(=N)N (stereo not shown) [TAN-749B dihydrochloride]
Solubility (by reference to TAN-749A dihydrochloride) [22]: Same with TAN-749A dihydrochloride
pKa [23]: 8.05

C/C=C/C=C/C(=O)NCC(O)CC(N)CC(=O)NCCC(=N)N (stereo not shown) [TAN-749C dihydrochloride]
Solubility (by reference to TAN-749A dihydrochloride) [22]: Same with TAN-749A dihydrochloride

C/C=C/C=C/C(=O)NC(C)C(O)CC(N)CC(=O)NCCC(=N)N (stereo not shown) [TAN-749D dihydrochloride]
Solubility (by reference to TAN-749A dihydrochloride) [22]: Same with TAN-749A dihydrochloride

C/C=C\C=C\C(=O)NCC(O)CC(CC(=O)NCCC(=N)N)NC (stereo not shown) [compound 80]
MIC [2]: > 100 µg/mL

C/C=C\C=C\C(=O)NCC(O)CC(CC(=O)NCCC(=N)N)NCC (stereo not shown) [compound 82]
ED50 [1]: 25 mg/kg
MIC [2]: > 100 µg/mL
